Laboratory results from PMC7380166, “How to Study the Metabolism of New Psychoactive Substances for the Purpose of Toxicological Screenings—A Follow-Up Study Comparing Pooled Human Liver S9, HepaRG Cells, and Zebrafish Larvae” (Frontiers in Chemistry, 2020).

Experiments:
[1] = Incubations with pooled human liver S9 fraction (pHLS9), metabolite identification by LC-HRMS/MS; format: in vitro ADME; conditions: human data for ephylone and 4F-PHP from Wagmann et al., [2019b]
Method: According to published procedures (Richter et al., [2017b], [2019b]; Caspar et al., [2018b]; Wagmann et al., [2019b],[c]), the final incubation volume per reaction tube was 150 μl, with a final protein concentration of 2 mg/ml. The given concentrations represent final concentrations. A preincubation for 10 min at 37°C with UGT reaction mixture solution B (containing alamethicin, 25 μg/ml), MgCl2 (2.5 mM), NADP^+ (0.6 mM), isocitrate (2.5 mM), isocitrate dehydrogenase (0.8 U/ml), superoxide dismutase (100 U/ml), acetyl coenzyme A (0.1 mM), phosphate buffer (90 mM, pH 7.4), and pHLS9 (2 mg/ml) was done. Afterwards, UGT reaction mixture solution A (containing UDP glucuronic acid, 2.5 mM), PAPS (40 μM), SAM (1.2 mM), dithiothreitol (1 mM), and glutathione (10 mM) were added, as well as 25 μM 4F-MDMB-BINACA to start the reactions. The mixture was incubated for 360 min. Total amount of organic solvent in incubation mixtures was <2% (Chauret et al., [1998]). After 60 min, an aliquot of the reaction mixture (60 μl) was transferred in another reaction tube containing 20 μl of ice-cold acetonitrile to terminate the reactions. The remaining aliquot (90 μl) was incubated for an additional 300 min, and then the reactions were stopped by adding 30 μl of ice-cold acetonitrile. Thereafter, the reaction tubes were cooled at −20°C for 30 min prior to centrifugation at 18,407 × g for 2 min. The supernatants (50 μl) were transferred into autosampler vials, and 1 μl was injected onto the LC-HRMS/MS system. Control samples without pHLS9 and blank samples without substrate were prepared to confirm the absence of non-metabolically formed and interfering compounds, respectively. All incubations were performed in duplicate.
According to a previous study (Richter et al., [2019a]), a Thermo Fisher Scientific (TF, Dreieich, Germany) Dionex UltiMate 3000 Rapid Separation (RS) UHPLC system with a quaternary UltiMate 3000 RS pump and an UltiMate 3000 RS autosampler controlled by the TF Chromeleon software version 6.8 was used. The LC system was coupled to an Orbitrap-based TF Q-Exactive Plus equipped with a heated electrospray ionization II (HESI-II) source. Calibration was done prior to analysis with a Positive Cal Mix (Supelco, Bellefonte, PA, USA) at a flow rate of 3 μl/min using a syringe pump. The conditions of the LC system were as follows: TF Accucore PhenylHexyl column (100 × 2.1 mm, 2.6 μm particle size); gradient elution with 2 mM ammonium formate solution containing 0.1% (v/v) formic acid (eluent A) and 2 mM ammonium formate solution in acetonitrile/methanol (50:50, v/v) containing 0.1% (v/v) formic acid, and 1% (v/v) water (eluent B). […] The following gradient was used: 0–1.0 min hold 1% B, 1–10 min to 99% B, 10–11.5 min hold 99% B, 11.5–13.5 min hold 1% B. The HESI-II source conditions were as follows: ionization mode, positive; heater temperature, 320°C; ion transfer capillary temperature, 320°C; sheath gas, 60 arbitrary units (AU); auxiliary gas, 10 AU; spray voltage, 4.00 kV; and S-lens RF level, 50.0. Mass spectrometry experiments were performed using high-resolution (HR) full scan mode and a targeted MS^2 mode with an inclusion list for each NPS. The inclusion list contained m/z values of metabolites, which were likely to be formed for example hydroxy, oxo, carboxy, dealkyl, demethylenylated, and defluorinated metabolites (phase I) as well as sulfates and glucuronides (phase II) and combinations of them. Full scan settings were as follows: resolution, 35,000; automatic gain control (AGC) target, 3e6; maximum injection time (IT), 120 ms; scan ranges, 3,4-DMA-NBOMe m/z 100–700, ephylone m/z 200–600, 4F-MDMB-BINACA m/z 150–700, 4F-PHP m/z 200–600, and 1P-LSD m/z 250–700. The settings for the targeted MS^2 mode with the respective inclusion lists were as follows: resolution, 17,500; AGC target, 2e5; maximum IT, 250 ms; loop count, 5; isolation window, 1.0 m/z; stepped normalized collision energy (NCE), 17.5, 35, 52.5%; pick others, enabled. […]

HepaRG cells = assay: Incubations with HepaRG cells, metabolite identification by LC-HRMS/MS; format: in vitro ADME, human
zebrafish larvae [2] = assay: In vivo maximum-tolerated concentration (MTC) study in zebrafish larvae; set-up: species or system zebrafish (Danio rerio); conditions: for Survival rate: 24-h treatment, fifteen larvae
Method: Internal protocols based on published standard methods (Westerfield, [2007]) were used to perform zebrafish husbandry and the maximum-tolerated concentration (MTC) testing was based on a previous study (Richter et al., [2019a]). Danieau's medium [17 mM NaCl, 2 mM KCl, 0.12 mM MgSO4, 1.8 mM Ca(NO3)2, 1.5 mM HEPES, pH 7.1–7.3, and 1.2 μM methylene blue] at 28°C was used to raise zebrafish larvae of the AB wild-type strain. For MTC testing, 96-well plates were used with 100 μl of medium and one larva per well. Drug exposition was started 4 dpf using 0, 0.01, 0.1, 1, 10, 50, or 100 μM final concentrations of 3,4-DMA-NBOMe, ephylone, 4F-MDMB-BINACA, 4F-PHP, or 1P-LSD, respectively. The drug exposure in the incubator at 28°C lasted 24 h. The final DMSO concentration was 1% (v/v) for all experiments. Monitoring of the larvae was done using a LEICA M205 FA stereo microscope (Leica Mikrosysteme Vertrieb GmbH, Wetzlar, Germany) to detect developmental defects and/or decreased survival rates. Fifteen larvae were used for each experiment.

[3] = ref Wagmann et al., cited from earlier work
monooxygenases = conditions: initial monooxygenases activity screenings described elsewhere; ref Caspar et al., [2018a]; Wagmann et al., [2019b],[c]; cited from earlier work
zebrafish larvae [4] = assay: Zebrafish larvae exposure, metabolite identification by LC-HRMS/MS
[5] = plasma, human data for ephylone and 4F-PHP from Wagmann et al., [2019b]
[6] = urine, human data for ephylone and 4F-PHP from Wagmann et al., [2019b]

CCCCC(C(=O)c1ccc(F)cc1)N1CCCC1 (stereo not drawn) [Metabolite 4F-PHP, 4-fluoro-alpha-pyrrolidinohexiophenone]
Relative number of matches with the four most abundant signals in human plasma, pHLS9 [25 μM] ([1]; plasma): 75% | Relative number of matches with the four most abundant signals in human urine, pHLS9 [25 μM] ([1]; urine): 75% | Absolute peak area, HepaRG [25 μM] (HepaRG cells; 25 μM parent NPS, 24 h, cell culture medium, one replicate of n = 3, n.d. = not detected): 6.65E+08 | Number of phase I metabolites detected, HepaRG [25 μM] (HepaRG cells; 25 μM, 24 h): 5 | Number of phase II metabolites detected, HepaRG [25 μM] (HepaRG cells; 25 μM, 24 h): 0 | Absolute peak area, HepaRG [250 μM] (HepaRG cells; 250 μM parent NPS, 24 h, cell culture medium, one replicate of n = 3, n.d. = not detected): 5.45E+09 | Number of phase I metabolites detected, HepaRG [250 μM] (HepaRG cells; 250 μM, 24 h): 6 | Number of phase II metabolites detected, HepaRG [250 μM] (HepaRG cells; 250 μM, 24 h): 1 | Relative number of matches with the four most abundant signals in human plasma, HepaRG [25 μM] (HepaRG cells; [5]): 50% | Relative number of matches with the four most abundant signals in human plasma, HepaRG [250 μM] (HepaRG cells; [5]): 50% | Relative number of matches with the four most abundant signals in human urine, HepaRG [25 μM] (HepaRG cells; [6]): 25% | Relative number of matches with the four most abundant signals in human urine, HepaRG [250 μM] (HepaRG cells; [6]): 50% | Survival rate (zebrafish larvae [2]; 0.01 μM, larvae 4 dpf): 100% | Survival rate (zebrafish larvae [2]; 0.1 μM, larvae 4 dpf): 100% | Survival rate (zebrafish larvae [2]; 1 μM, larvae 4 dpf): 100% | Survival rate (zebrafish larvae [2]; 10 μM, larvae 4 dpf): 100% | Survival rate (zebrafish larvae [2]; 50 μM, larvae 4 dpf): 100% | Survival rate (zebrafish larvae [2]; 100 μM, larvae 4 dpf): 100% | Survival rates for all tested concentrations (zebrafish larvae [2]; 0.01 to 100 μM, larvae 4 dpf, 24 h): 100% | Concentration considered non-toxic for zebrafish larvae (4 dpf) (zebrafish larvae [2]; 24 h exposure via medium): 100 µM | Malformations (zebrafish larvae [2]; up to 100 μM, larvae 4 dpf, 24 h): no malformations | Number of phase I metabolites detected, pHLS9 [25 μM] ([3]; 25 μM, [2019b]): 6 (Wagmann et al., [2019b]) | Number of phase II metabolites detected, pHLS9 [25 μM] ([3]; 25 μM, [2019b]): 2 (Wagmann et al., [2019b]) | Detection in pHLS9 [25 µM] ([3]; 4F-PHP and metabolites, n = 2, according to literature, 2019a): + | Monooxygenases involved in metabolism (monooxygenases): CYP1A2, CYP2B6, CYP2C19, and CYP3A4 | Number of phase I metabolites detected, Zebrafish larvae (zebrafish larvae [4]; 100 μM in medium, 24 h): 8 | Number of phase II metabolites detected, Zebrafish larvae (zebrafish larvae [4]; 100 μM in medium, 24 h): 3 | Absolute peak area, Zebrafish larvae [100 µM] (zebrafish larvae [4]; 100 µM parent NPS in medium, larvae 4 dpf, 24 h, larvae extract, one replicate of n = 3, n.d. = not detected): 4.36E+09 | Relative number of matches with the four most abundant signals in human plasma, Zebrafish larvae (zebrafish larvae [4]; plasma, larvae exposed to 100 μM, human data from Wagmann et al., [2019b]): 100% | Relative number of matches with the four most abundant signals in human urine, Zebrafish larvae (zebrafish larvae [4]; urine, larvae exposed to 100 μM, human data from Wagmann et al., [2019b]): 75%
